Results on 28 compounds are retold here after patent publication US9657014B2, “Substituted 1,6-naphthyridines” (Hoffmann-La Roche Inc., priority 2012, dated 2017).

This experiment has as its system human embryonic stem cell derived neural stem cells (NSCs). The experiment is described as follows: Neural stem cell proliferation assay (neurogenesis assay). The format is cell-based. The settings on record: Homo sapiens, Neural stem cell, 96 h; Table 1, novel compounds; concentration at which 150% activity of control (100%) is reached; ATP levels (CellTiterGlo) after 4 days incubation. The method in brief: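 NSCs derived from human ES cells by dual SMAD inhibition, seeded on polyornithin/laminin, dosed 4 h later (11 points, 8 μM to 8 nM). After 4 days at 37° C, ATP luminescence read; response = compound/medium control ×100, EC150 = concentration giving 150% of control.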
The compound `CC(NC(=O)c1ccc2cncc(-c3ccc(F)cc3)c2n1)c1ccc(S(C)(=O)=O)cc1` (stereo not shown) [Example 107, 8-(4-Fluorophenyl)-N-(1-(4-(methylsulfonyl)phenyl)ethyl)-1,6-naphthyridine-2-carboxamide] registered an EC (150% of control) of 0.1 µM.

For `CC(NC(=O)c1ccc2cncc(-c3ccccc3F)c2n1)c1ccc(S(C)(=O)=O)cc1` (stereo not shown) [Example 108, 8-(2-Fluorophenyl)-N-(1-(4-(methylsulfonyl)phenyl)ethyl)-1,6-naphthyridine-2-carboxamide], the EC (150% of control) came to 0.5 µM.

For `CC(NC(=O)c1ccc2cncc(-c3cccc(F)c3)c2n1)c1ccc(S(C)(=O)=O)cc1` (stereo not shown) [Example 109, 8-(3-Fluorophenyl)-N-(1-(4-(methylsulfonyl)phenyl)ethyl)-1,6-naphthyridine-2-carboxamide], the EC (150% of control) came out at 4.2 µM.

On to `CC(NC(=O)c1ccc2cncc(-c3ccc(F)cc3F)c2n1)c1ccc(S(C)(=O)=O)cc1` (stereo not shown) [Example 110, 8-(2,4-Difluorophenyl)-N-(1-(4-(methylsulfonyl)phenyl)ethyl)-1,6-naphthyridine-2-carboxamide], for which the EC (150% of control) stood at 0.49 µM.

For `CC(NC(=O)c1ccc2cncc(-c3ccc(F)c(F)c3)c2n1)c1ccc(S(C)(=O)=O)cc1` (stereo not shown) [Example 111, 8-(3,4-Difluorophenyl)-N-(1-(4-(methylsulfonyl)phenyl)ethyl)-1,6-naphthyridine-2-carboxamide], the EC (150% of control) came out at 0.3 µM.

Consider `CS(=O)(=O)c1ccc(CNC(=O)c2ccc3cncc(-c4ccccc4F)c3n2)cc1` [Example 112, 8-(2-Fluorophenyl)-N-(4-(methylsulfonyl)benzyl)-1,6-naphthyridine-2-carboxamide], for which the EC (150% of control) was 0.25 µM.

`CS(=O)(=O)c1ccc(CNC(=O)c2ccc3cncc(-c4cccc(F)c4)c3n2)cc1` [Example 113, 8-(3-Fluorophenyl)-N-(4-(methylsulfonyl)benzyl)-1,6-naphthyridine-2-carboxamide]: the EC (150% of control) came out at 0.17 µM.

Compound `CS(=O)(=O)c1ccc(CNC(=O)c2ccc3cncc(-c4ccc(F)cc4F)c3n2)cc1` [Example 114, 8-(2,4-Difluorophenyl)-N-(4-(methylsulfonyl)benzyl)-1,6-naphthyridine-2-carboxamide] displayed an EC (150% of control) of 0.51 µM.

Compound `CS(=O)(=O)c1ccc(CNC(=O)c2ccc3cncc(-c4ccc(F)c(F)c4)c3n2)cc1` [Example 115, 8-(3,4-Difluorophenyl)-N-(4-(methylsulfonyl)benzyl)-1,6-naphthyridine-2-carboxamide] showed an EC (150% of control) of 1.95 µM.

`CS(=O)(=O)c1ccc(CNC(=O)c2ccc3cncc(-c4cc(F)ccc4F)c3n2)cc1` [Example 116, 8-(2,5-Difluorophenyl)-N-(4-(methylsulfonyl)benzyl)-1,6-naphthyridine-2-carboxamide] had an EC (150% of control) of 1.65 µM.

`CC(C)(C)CNC(=O)c1ccc2cncc(-c3ccc(F)cc3)c2n1` [Example 117, 8-(4-Fluorophenyl)-N-neopentyl-1,6-naphthyridine-2-carboxamide]: the EC (150% of control) was 0.07 µM.

`CC(C)(C)CNC(=O)c1ccc2cncc(-c3ccccc3F)c2n1` [Example 118, 8-(2-Fluorophenyl)-N-neopentyl-1,6-naphthyridine-2-carboxamide] came in with an EC (150% of control) of 0.04 µM.

Compound `CC(C)(C)CNC(=O)c1ccc2cncc(-c3cccc(F)c3)c2n1` [Example 119, 8-(3-Fluorophenyl)-N-neopentyl-1,6-naphthyridine-2-carboxamide] yielded an EC (150% of control) of 0.27 µM.

With `CC(C)(C)CNC(=O)c1ccc2cncc(-c3ccc(F)cc3F)c2n1` [Example 120, 8-(2,4-Difluorophenyl)-N-neopentyl-1,6-naphthyridine-2-carboxamide], the EC (150% of control) turned out to be 0.08 µM.

With `CC(C)(C)CNC(=O)c1ccc2cncc(-c3ccc(F)c(F)c3)c2n1` [Example 121, 8-(3,4-Difluorophenyl)-N-neopentyl-1,6-naphthyridine-2-carboxamide], the EC (150% of control) is 0.26 µM.

Compound `CC(C)(C)CNC(=O)c1ccc2cncc(-c3cc(F)ccc3F)c2n1` [Example 122, 8-(2,5-Difluorophenyl)-N-neopentyl-1,6-naphthyridine-2-carboxamide] gave an EC (150% of control) of 0.12 µM.

Compound `O=C(NCC(F)(F)F)c1ccc2cncc(-c3cccc(F)c3)c2n1` [Example 123, 8-(3-Fluorophenyl)-N-(2,2,2-trifluoroethyl)-1,6-naphthyridine-2-carboxamide] came in with an EC (150% of control) of 0.38 µM.

Consider `O=C(NCC(F)(F)F)c1ccc2cncc(-c3ccc(F)cc3)c2n1` [Example 124, 8-(4-Fluorophenyl)-N-(2,2,2-trifluoroethyl)-1,6-naphthyridine-2-carboxamide], for which the EC (150% of control) is 0.07 µM.

The compound `O=C(NCC(F)(F)F)c1ccc2cncc(-c3ccccc3F)c2n1` [Example 125, 8-(2-Fluorophenyl)-N-(2,2,2-trifluoroethyl)-1,6-naphthyridine-2-carboxamide] came in with an EC (150% of control) of 0.04 µM.

`O=C(NCC(F)(F)F)c1ccc2cncc(-c3ccc(F)cc3F)c2n1` [Example 126, 8-(2,4-Difluorophenyl)-N-(2,2,2-trifluoroethyl)-1,6-naphthyridine-2-carboxamide]: the EC (150% of control) amounted to 0.06 µM.

`O=C(NCC(F)(F)F)c1ccc2cncc(-c3ccc(F)c(F)c3)c2n1` [Example 127, 8-(3,4-Difluorophenyl)-N-(2,2,2-trifluoroethyl)-1,6-naphthyridine-2-carboxamide] had an EC (150% of control) of 0.23 µM.

In the case of `O=C(NCC(F)(F)F)c1ccc2cncc(-c3cc(F)ccc3F)c2n1` [Example 128, 8-(2,5-Difluorophenyl)-N-(2,2,2-trifluoroethyl)-1,6-naphthyridine-2-carboxamide], the EC (150% of control) came out at 0.13 µM.

The compound `CS(=O)(=O)CCNC(=O)c1ccc2cncc(-c3ccc(F)cc3F)c2n1` [Example 129, 8-(2,4-Difluorophenyl)-N-(2-(methylsulfonyl)ethyl)-1,6-naphthyridine-2-carboxamide] had an EC (150% of control) of 0.06 µM.

For the compound `O=C(c1ccc2cncc(-c3ccc(Cl)cc3F)c2n1)N1CCC(O)C1` (stereo not shown) [Example 130, (8-(4-Chloro-2-fluorophenyl)-1,6-naphthyridin-2-yl)(3-hydroxypyrrolidin-1-yl)methanone], the EC (150% of control) was found to be 0.13 µM.

As for `O=C(c1ccc2cncc(-c3ccc(Cl)c(F)c3)c2n1)N1CCC(O)C1` (stereo not shown) [Example 131, (8-(4-Chloro-3-fluorophenyl)-1,6-naphthyridin-2-yl)(3-hydroxypyrrolidin-1-yl)methanone], the EC (150% of control) was 0.07 µM.

The compound `CS(=O)(=O)c1ccccc1CNC(=O)c1ccc2cncc(-c3ccc(Cl)cc3)c2n1` [Example 132, 8-(4-Chlorophenyl)-N-(2-(methylsulfonyl)benzyl)-1,6-naphthyridine-2-carboxamide] displayed an EC (150% of control) of 0.03 µM.

On to `CS(=O)(=O)CCNC(=O)c1ccc2cncc(-c3ccccc3F)c2n1` [Example 133, 8-(2-Fluorophenyl)-N-(2-(methylsulfonyl)ethyl)-1,6-naphthyridine-2-carboxamide], for which the EC (150% of control) stood at 0.23 µM.

`CS(=O)(=O)CCNC(=O)c1ccc2cncc(-c3cccc(F)c3)c2n1` [Example 134, 8-(3-Fluorophenyl)-N-(2-(methylsulfonyl)ethyl)-1,6-naphthyridine-2-carboxamide] had an EC (150% of control) of 0.22 µM.
